The target in one series is WDR5-MYC (Homo sapiens, UniProt P61964). Put plainly: Inhibition of N-terminal his-tagged WDR5 (1 to 334 residues) (unknown origin)/Biotin tagged Myc (256-268 residues) (unknown origin) interaction measured after 1 hrs by HTRF assay. It counts as protein assay. (Time-resolved FRET reads energy transfer from a long-lived donor to a nearby acceptor.)
The subject of the next series is COR-L279. The experiment in a line: Antiproliferative activity against human COR-L279 cells assessed as cell growth inhibition measured after 72 hrs by CellTier-Glo assay. It counts as functional.
Another series has as its system Daudi. The experiment in a line: Antiproliferative activity against human Daudi cells assessed as cell growth inhibition measured after 72 hrs by CellTier-Glo assay. It counts as functional.
The subject of a further series is Ramos. Put plainly: Antiproliferative activity against human Ramos cells assessed as cell growth inhibition measured after 72 hrs by CellTier-Glo assay. The class given is functional.
The next series concerns NB-4. The experiment in a line: Antiproliferative activity against human NB4 cells assessed as cell growth inhibition measured after 72 hrs by CellTier-Glo assay. The class given is functional.
Series [1] has as its system HL-60. Put plainly: Antiproliferative activity against human HL-60 cells assessed as cell growth inhibition measured after 72 hrs by CellTier-Glo assay. The class given is functional.
In series [2] the target is Histone-lysine N-methyltransferase 2A/WDR5 (Homo sapiens) (UniProt P61964+Q03164). The experiment in a line: Inhibition of WDR5 (unknown origin)/MLL (unknown origin) interaction by NanoBiT assay. It counts as protein assay.
In series [3] the test system is HL-60. The experiment in a line: Downregulation of RPL17 gene expression in human HL-60 cells at 10 uM measured after 24 hrs by RT-qPCR assay. It counts as functional, cell-based. (Quantitative PCR measures a nucleic acid by following its amplification.)
Series [4] has as its system HL-60. Put plainly: Downregulation of RPL23 gene expression in human HL-60 cells at 10 uM measured after 24 hrs by RT-qPCR assay. It counts as functional, cell-based.
For series [5], the system named is HL-60. Put plainly: Downregulation of RPL35 gene expression in human HL-60 cells at 10 uM measured after 24 hrs by RT-qPCR assay. The class given is functional, cell-based.
Series [6] has as its system HL-60. Put plainly: Downregulation of RPL37A gene expression in human HL-60 cells at 10 uM measured after 24 hrs by RT-qPCR assay. The class given is functional, cell-based.
In another series the test system is SHP77. The experiment in a line: Antiproliferative activity against human SHP77 cells assessed as cell growth inhibition measured after 72 hrs by CellTier-Glo assay. The class given is functional.
For a further series, the system named is NCI-H520. Put plainly: Antiproliferative activity against human NCI-H520 cells assessed as cell growth inhibition measured after 72 hrs by CellTier-Glo assay. The class given is functional.
Another series deals with NCI-H1650. Put plainly: Antiproliferative activity against human NCI-H1650 cells assessed as cell growth inhibition measured after 72 hrs by CellTier-Glo assay. The class given is functional.
In series [7] the test system is HL-60. Put plainly: Effect on MCM4 mRNA expression in human HL-60 cells measured after 24 hrs by RT-qPCR assay. It counts as functional, cell-based.
The subject of series [8] is HL-60. The experiment in a line: Effect on MCM10 mRNA expression in human HL-60 cells measured after 24 hrs by RT-qPCR assay. The class given is functional, cell-based.
The subject of series [9] is HL-60. The experiment in a line: Effect on Cdc20 mRNA expression in human HL-60 cells measured after 24 hrs by RT-qPCR assay. The class given is functional, cell-based.
Series [10] relates to HL-60. The experiment in a line: Effect on AURKB mRNA expression in human HL-60 cells measured after 24 hrs by RT-qPCR assay. It counts as functional, cell-based.
Series [11] can be described thus: Microsomal stability in mouse liver microsome assessed as intrinsic clearance. Particulars: liver microsomes, read-out: CLH. It counts as ADME. Background: Liver microsomes are a subcellular fraction often used to study metabolism.
A short description of series [12]: Apparent permeability of the compound in dog MDCKII-LE cells measured upto 1.5 hrs. The class given is ADME, cell-based, Canis lupus familiaris. Particulars: MDCK.

For orientation: IC50 means the point on the concentration scale where inhibition reaches its midpoint. A high value points to a need for much substance. The term GI50 denotes the concentration that inhibits growth by half. In general, Papp refers to a coefficient for how fast a substance crosses the barrier.

Structures are written as SMILES. Calls of active or inactive are those of the source. The rule behind the calls is not given here. Where only a bound is given, the exact number is not on record here.

In the case of `Cc1cc(=O)c(C(=O)NCc2c(F)cc(-c3ccccc3)cc2F)nn1-c1cccnc1`, the concentration for half-maximal inhibition (IC50) against WDR5-MYC was 25.4 µM. In other words, the double-digit micromolar range.
`Cc1cc(=O)c(C(=O)NCc2c(F)cc(N3CC[C@H](F)C3)cc2F)nn1-c1ccccc1` returned an IC50 on WDR5-MYC of 1.2 µM.
The same measure, in the same setting: the value for `Cc1cc(=O)c(C(=O)NCc2c(F)cc(N3CC[C@@H](F)C3)cc2F)nn1-c1cccc(C(=O)O)c1` was 1.23 µM; that for `Cc1cc(=O)c(C(=O)NCc2c(F)cc(N3CCCC(F)(F)C3)cc2F)nn1-c1ccccc1` was 0.82 µM.
On to `Cc1cc(=O)c(C(=O)NCc2c(F)cc(N3CC[C@@H](F)C3)cc2F)nn1-c1cccc(CC(=O)O)c1`, for which inhibition on WDR5-MYC was half-maximal at 1.43 µM (IC50).
On the same count and under the same terms, the figure for `Cc1cc(=O)c(C(=O)NCc2c(F)cc(C3=CC(=O)CCC3)cc2F)nn1-c1ccccc1` is 1.58 µM.
In the case of `Cc1cc(=O)c(C(=O)N(C)Cc2c(F)cc(C3CCCOC3)cc2F)nn1-c1ccccc1` (configuration not stated), the 50% growth inhibitory concentration (GI50) in the series with COR-L279, with Daudi, with Ramos, with NB-4, with HL-60 [1] and with SHP77 was over 50 µM throughout. Moreover, the GI50 with NCI-H520 and in the series on NCI-H1650 was over 50 µM throughout. This compound also yielded a 50% inhibitory concentration (IC50) on WDR5-MYC of 43.4 µM. Further, the inhibition result in series [2] is “inactive”. Also, the outcome with HL-60 [3], in the series with HL-60 [4], in the series on HL-60 [5], with HL-60 [6], in the series with HL-60 [7] and in the series with HL-60 [8] was inactive. In addition, the result in the series on HL-60 [9] and in the series on HL-60 [10] was inactive.
At WDR5-MYC, `Cc1cc(=O)c(C(=O)NCc2c(F)cc(-c3cccc(C(=O)O)c3)cc2F)nn1-c1ccccc1` had a half-inhibitory concentration (IC50) of 2.48 µM.
Regarding `CCCC[C@@H](Cc1c(F)cc(-c2cccc(S(=O)(=O)F)c2)cc1F)C(=O)Nc1nnn[nH]1`, the microsomal CLint in series [11] turned out to be 150 µL/min/mg. Also, the Papp at 1.5 h in series [12] was 0.96 ×10⁻⁶ cm/s.
In the case of `Cc1cc(=O)c(C(=O)NCc2c(F)cc(N3CC[C@@H](F)C3)cc2F)nn1-c1cccc(CC(N)=O)c1`, the IC50 on WDR5-MYC stood at 3.15 µM.
Regarding `Cc1cc(=O)c(C(=O)NCc2c(F)cc(-c3cccc(CO)c3)cc2F)nn1-c1ccccc1`, at WDR5-MYC, the IC50 was 5.69 µM.
`Cc1cc(=O)c(C(=O)NCc2c(F)cc(N3CCOCC3)cc2F)nn1-c1ccccc1` gave an IC50 against WDR5-MYC of 3.24 µM.
Same read-out and setting: the value for `Cc1cc(=O)c(C(=O)NCc2c(F)cc(-c3cccnc3)cc2F)nn1-c1ccccc1` was 4.45 µM; that for `Cc1cc(=O)c(C(=O)NCc2c(F)cc(N3CC[C@@H](F)C3)cc2F)nn1-c1cccc(C(N)=O)c1` was 1.93 µM.

The values above are taken from ChEMBL document CHEMBL5352508, “Discovery and Structure-Based Design of Inhibitors of the WD Repeat-Containing Protein 5 (WDR5)-MYC Interaction” (J Med Chem, 2023).
